Literature values in patent US20090069433A1 (priority 2007, published 2009).

Conditions: pure capsaicinoid; background statement

COc1cc(CNC(=O)CCCC/C=C/C(C)C)ccc1O [Capsaicin]
pungency (Scoville scale): 15,000,000-16,000,000 Scoville units
